Results as given in article PMC5218480 (PLoS ONE, 2017).

Test system: MV-4-11 cells
Assay: Gene expression microarray analysis (Affymetrix PrimeView) and GSEA
Type: cell-based, human
Parameters: RFU PODN (11730768_x_at) / Fold change /veh PODN (11730768_x_at) / RFU LINC00158 (11744669_a_at) / Fold change /veh LINC00158 (11744669_a_at) / RFU DUSP10 (11751237_a_at) / Fold change /veh DUSP10 (11751237_a_at) / RFU ID3 (11757404_x_at) / Fold change /veh ID3 (11757404_x_at) / RFU PLEKHG5 (11737974_s_at) / Fold change /veh PLEKHG5 (11737974_s_at) / RFU LRRC4B (11730491_at) / Fold change /veh LRRC4B (11730491_at) / RFU GIMAP4 (11747438_a_at) / Fold change /veh GIMAP4 (11747438_a_at) / RFU KRT8 (11758183_x_at) / Fold change /veh KRT8 (11758183_x_at) / RFU CNN1 (11734310_a_at) / Fold change /veh CNN1 (11734310_a_at) / RFU VPS37D (11726825_at) / Fold change /veh VPS37D (11726825_at) / RFU C10orf10 (11716522_x_at) / Fold change /veh C10orf10 (11716522_x_at) / RFU KIR2DL2 /// KIR2DL4 /// KIR2DL5A /// KIR2DL5B /// KIR2DS1 /// KIR2DS2 /// KIR2DS3 /// KIR2DS4 /// KIR3DL3 /// KIR3DL3 /// KIR3DS1 (11738374_at) / Fold change /veh KIR2DL2 /// KIR2DL4 /// KIR2DL5A /// KIR2DL5B /// KIR2DS1 /// KIR2DS2 /// KIR2DS3 /// KIR2DS4 /// KIR3DL3 /// KIR3DL3 /// KIR3DS1 (11738374_at) / RFU C1QL1 (11718748_at) / Fold change /veh C1QL1 (11718748_at) / RFU TMPRSS4 (11747572_a_at) / Fold change /veh TMPRSS4 (11747572_a_at) / RFU HAMP (11756126_x_at) / Fold change /veh HAMP (11756126_x_at) / RFU RNFT2 (11725882_a_at) / Fold change /veh RNFT2 (11725882_a_at) / RFU NR4A2 (11747474_a_at) / Fold change /veh NR4A2 (11747474_a_at) / RFU ABCC12 (11746883_a_at) / Fold change /veh ABCC12 (11746883_a_at) / RFU TMEM136 (11760407_x_at) / Fold change /veh TMEM136 (11760407_x_at) / RFU CLDN22 /// WWC2 (11732394_at) / Fold change /veh CLDN22 /// WWC2 (11732394_at) / RFU HLA-DPB1 (11760878_x_at) / Fold change /veh HLA-DPB1 (11760878_x_at) / RFU SPINT1 (11716480_a_at) / Fold change /veh SPINT1 (11716480_a_at) / RFU GAP43 (11754022_s_at) / Fold change /veh GAP43 (11754022_s_at) / RFU A4GNT (11735810_at) / Fold change /veh A4GNT (11735810_at) / RFU PRB3 (11715151_x_at) / Fold change /veh PRB3 (11715151_x_at) / RFU TUBB4B (11761932_at) / Fold change /veh TUBB4B (11761932_at) / RFU CAPN14 (11732068_a_at) / Fold change /veh CAPN14 (11732068_a_at) / RFU TMCC2 (11721928_a_at) / Fold change /veh TMCC2 (11721928_a_at) / RFU IRGQ (11745062_a_at) / Fold change /veh IRGQ (11745062_a_at) / RFU FAM174B (11720279_a_at) / Fold change /veh FAM174B (11720279_a_at) / RFU TMPRSS4 (11748680_a_at) / Fold change /veh TMPRSS4 (11748680_a_at) / RFU FAM212B (11763350_a_at) / Fold change /veh FAM212B (11763350_a_at) / RFU PLEKHG5 (11743358_a_at) / Fold change /veh PLEKHG5 (11743358_a_at) / RFU ZSCAN30 (11745921_a_at) / Fold change /veh ZSCAN30 (11745921_a_at) / RFU CMKLR1 (11741424_a_at) / Fold change /veh CMKLR1 (11741424_a_at) / RFU LOC101060620 /// MAPK8IP1 (11723275_at) / Fold change /veh LOC101060620 /// MAPK8IP1 (11723275_at) / RFU SPTSSB (11747773_x_at) / Fold change /veh SPTSSB (11747773_x_at) / RFU PRSS12 (11739890_at) / Fold change /veh PRSS12 (11739890_at) / RFU BIN1 (11741810_x_at) / Fold change /veh BIN1 (11741810_x_at) / RFU WNT11 (11732464_a_at) / Fold change /veh WNT11 (11732464_a_at) / RFU C10orf10 (11716521_a_at) / Fold change /veh C10orf10 (11716521_a_at) / RFU C5orf56 (11738089_at) / Fold change /veh C5orf56 (11738089_at) / RFU CYB561 (11721691_x_at) / Fold change /veh CYB561 (11721691_x_at) / RFU ANKRD19P (11752326_a_at) / Fold change /veh ANKRD19P (11752326_a_at) / RFU OR2T12 /// OR2T33 /// OR2T8 (11738714_s_at) / Fold change /veh OR2T12 /// OR2T33 /// OR2T8 (11738714_s_at) / RFU VCAN (11748164_a_at) / Fold change /veh VCAN (11748164_a_at) / RFU JSRP1 (11732532_at) / Fold change /veh JSRP1 (11732532_at) / RFU KRTAP10-11 (11738290_x_at) / Fold change /veh KRTAP10-11 (11738290_x_at) / RFU MYO3A (11730013_a_at) / Fold change /veh MYO3A (11730013_a_at) / RFU EBF3 (11725865_a_at) / Fold change /veh EBF3 (11725865_a_at) / RFU CAMK2N1 (11719241_x_at) / Fold change /veh CAMK2N1 (11719241_x_at) / RFU C5orf56 (11738088_a_at) / Fold change /veh C5orf56 (11738088_a_at) / RFU OLFML3 (11715873_a_at) / Fold change /veh OLFML3 (11715873_a_at) / RFU LOC100653217 /// NTM (11731650_a_at) / Fold change /veh LOC100653217 /// NTM (11731650_a_at) / RFU MAPK11 (11762145_a_at) / Fold change /veh MAPK11 (11762145_a_at) / RFU FIZ1 (11724087_x_at) / Fold change /veh FIZ1 (11724087_x_at) / RFU OASL (11726364_x_at) / Fold change /veh OASL (11726364_x_at) / RFU SOX15 (11748057_x_at) / Fold change /veh SOX15 (11748057_x_at) / RFU CD79A (11719716_a_at) / Fold change /veh CD79A (11719716_a_at) / RFU HIST1H1D (11736915_at) / Fold change /veh HIST1H1D (11736915_at) / RFU CASKIN2 (11723855_a_at) / Fold change /veh CASKIN2 (11723855_a_at) / RFU LOC730098 (11760151_x_at) / Fold change /veh LOC730098 (11760151_x_at) / RFU OR4N2 (11742367_at) / Fold change /veh OR4N2 (11742367_at) / RFU PRRT2 (11749266_a_at) / Fold change /veh PRRT2 (11749266_a_at) / RFU SNX32 (11753110_a_at) / Fold change /veh SNX32 (11753110_a_at) / RFU CDHR5 (11726645_a_at) / Fold change /veh CDHR5 (11726645_a_at) / RFU RCAN1 (11760418_a_at) / Fold change /veh RCAN1 (11760418_a_at) / RFU FAM167A (11723789_a_at) / Fold change /veh FAM167A (11723789_a_at) / RFU FAM26E (11764081_at) / Fold change /veh FAM26E (11764081_at) / RFU ISYNA1 (11749810_s_at) / Fold change /veh ISYNA1 (11749810_s_at) / RFU ACY1 (11761880_at) / Fold change /veh ACY1 (11761880_at) / RFU 11764098_at / Fold change /veh 11764098_at / RFU SAMD14 (11745864_x_at) / Fold change /veh SAMD14 (11745864_x_at) / RFU NPB (11741838_a_at) / Fold change /veh NPB (11741838_a_at) / RFU TMPRSS6 (11731388_a_at) / Fold change /veh TMPRSS6 (11731388_a_at) / RFU KRTAP10-2 (11738614_at) / Fold change /veh KRTAP10-2 (11738614_at) / RFU ARHGAP8 /// PRR5-ARHGAP8 (11727945_x_at) / Fold change /veh ARHGAP8 /// PRR5-ARHGAP8 (11727945_x_at) / RFU KRTAP5-7 /// NADSYN1 (11734609_at) / Fold change /veh KRTAP5-7 /// NADSYN1 (11734609_at) / RFU RASL12 (11751679_a_at) / Fold change /veh RASL12 (11751679_a_at) / RFU CDKN2B (11736163_a_at) / Fold change /veh CDKN2B (11736163_a_at) / RFU PRF1 (11729649_at) / Fold change /veh PRF1 (11729649_at) / RFU, ZNF638 /// ZNF638-IT1 / Fold change vs veh, ZNF638 /// ZNF638-IT1 / RFU, PANK3 / Fold change vs veh, PANK3 / RFU, SH3YL1 / Fold change vs veh, SH3YL1 / RFU, ZEB2 / Fold change vs veh, ZEB2 / RFU, NRIP1 / Fold change vs veh, NRIP1 / RFU, PTTG1IP / Fold change vs veh, PTTG1IP / RFU, CAPN2 / Fold change vs veh, CAPN2 / RFU, MED14 / Fold change vs veh, MED14 / RFU, SNORA58 / Fold change vs veh, SNORA58 / RFU, C1orf63 / Fold change vs veh, C1orf63 / RFU, LRRFIP1 / Fold change vs veh, LRRFIP1 / RFU, NDUFAF7 / Fold change vs veh, NDUFAF7 / RFU, SLC12A2 / Fold change vs veh, SLC12A2 / RFU, IBTK / Fold change vs veh, IBTK / RFU, ESF1 / Fold change vs veh, ESF1 / Fold change vs veh, TMEM50B / RFU, TAOK1 / Fold change vs veh, TAOK1 / RFU, ACBD3 / Fold change vs veh, ACBD3 / RFU, TMA16 / Fold change vs veh, TMA16 / RFU, RWDD3 / Fold change vs veh, RWDD3 / RFU, BCAT1 / Fold change vs veh, BCAT1 / RFU, EDEM3 / Fold change vs veh, EDEM3 / RFU, TMEM33 / Fold change vs veh, TMEM33 / RFU, WDR75 / Fold change vs veh, WDR75 / RFU, AHCTF1 / Fold change vs veh, AHCTF1 / RFU, TFRC / Fold change vs veh, TFRC / RFU, ZDHHC17 / Fold change vs veh, ZDHHC17 / RFU, NOM1 / Fold change vs veh, NOM1 / RFU, ARL8B / Fold change vs veh, ARL8B / RFU, ZBTB11 / Fold change vs veh, ZBTB11 / RFU, TAMM41 / Fold change vs veh, TAMM41 / RFU, KIAA1704 /// LOC100996395 / Fold change vs veh, KIAA1704 /// LOC100996395 / RFU, ING1 / Fold change vs veh, ING1 / RFU, TRMT61B / Fold change vs veh, TRMT61B / RFU, FUBP3 / Fold change vs veh, FUBP3 / RFU, TP53 / Fold change vs veh, TP53 / RFU, TNKS2 / Fold change vs veh, TNKS2 / RFU, ZFP14 / Fold change vs veh, ZFP14 / RFU, ACTR2 / Fold change vs veh, ACTR2 / RFU, PPP3R1 / Fold change vs veh, PPP3R1 / RFU, PIK3R1 / Fold change vs veh, PIK3R1 / RFU, HNRNPA1 / Fold change vs veh, HNRNPA1 / RFU, RNF170 / Fold change vs veh, RNF170 / RFU, ZNF28 / Fold change vs veh, ZNF28 / RFU, RNGTT / Fold change vs veh, RNGTT / RFU, OGT / Fold change vs veh, OGT / RFU, BRD1 / Fold change vs veh, BRD1 / RFU, MARS / Fold change vs veh, MARS / RFU, ZNF655 / Fold change vs veh, ZNF655 / RFU, FAHD1 / Fold change vs veh, FAHD1 / RFU, BDP1 / Fold change vs veh, BDP1 / RFU, LRRCC1 / Fold change vs veh, LRRCC1 / RFU, ARID1A / Fold change vs veh, ARID1A / RFU, ZNF146 / Fold change vs veh, ZNF146 / RFU, ZNF330 / Fold change vs veh, ZNF330 / RFU, GPN3 / Fold change vs veh, GPN3 / RFU, C9orf123 / Fold change vs veh, C9orf123 / RFU, N4BP2L2 / Fold change vs veh, N4BP2L2 / RFU, ARFIP1 / Fold change vs veh, ARFIP1 / RFU, FAM179B / Fold change vs veh, FAM179B / RFU, BCL10 / Fold change vs veh, BCL10 / RFU, UHRF1BP1L / Fold change vs veh, UHRF1BP1L / RFU, BET1 / Fold change vs veh, BET1 / RFU, CNOT2 / Fold change vs veh, CNOT2 / RFU, ZNF268 / Fold change vs veh, ZNF268 / Fold change vs veh, ZNF507 / RFU, DGCR2 / Fold change vs veh, DGCR2 / RFU, WDSUB1 / Fold change vs veh, WDSUB1 / Fold change vs veh, HSP90B1 /// MIR3652 / RFU, ADSS / Fold change vs veh, ADSS / RFU, GK / Fold change vs veh, GK / RFU, ZNF148 / Fold change vs veh, ZNF148 / RFU, TAF9 / Fold change vs veh, TAF9 / RFU, SLC1A5 / Fold change vs veh, SLC1A5 / RFU, SLMO2 / Fold change vs veh, SLMO2 / RFU, ABCC4 / Fold change vs veh, ABCC4 / RFU, LOC101060439 /// RAP1B / Fold change vs veh, LOC101060439 /// RAP1B / RFU, RFX7 / Fold change vs veh, RFX7 / RFU, GTPBP10 / Fold change vs veh, GTPBP10 / RFU, CNEP1R1 / Fold change vs veh, CNEP1R1 / RFU, BIVM-ERCC5 /// ERCC5 / Fold change vs veh, BIVM-ERCC5 /// ERCC5 / RFU, ILF3 / Fold change vs veh, ILF3 / RFU 11762660_at / Fold change /veh 11762660_at / RFU VCAN (11757783_s_at) / Fold change /veh VCAN (11757783_s_at) / RFU DDX43 (11728927_at) / Fold change /veh DDX43 (11728927_at) / RFU KRT8 (11758188_x_at) / Fold change /veh KRT8 (11758188_x_at) / RFU NKD1 (11759106_at) / Fold change /veh NKD1 (11759106_at) / RFU SRD5A1 (11742802_a_at) / Fold change /veh SRD5A1 (11742802_a_at) / RFU TPSAB1 /// TPSB2 (11721975_s_at) / Fold change /veh TPSAB1 /// TPSB2 (11721975_s_at) / RFU GSTM3 (11746129_a_at) / Fold change /veh GSTM3 (11746129_a_at) / RFU IL23R (11737362_x_at) / Fold change /veh IL23R (11737362_x_at) / RFU TMEM51 (11727254_a_at) / Fold change /veh TMEM51 (11727254_a_at) / RFU PIWIL2 (11732686_x_at) / Fold change /veh PIWIL2 (11732686_x_at) / RFU ORM1 (11744905_x_at) / Fold change /veh ORM1 (11744905_x_at) / RFU CCDC152 (11743942_at) / Fold change /veh CCDC152 (11743942_at) / RFU ECM1 (11717891_a_at) / Fold change /veh ECM1 (11717891_a_at) / RFU IL23R (11748794_a_at) / Fold change /veh IL23R (11748794_a_at) / RFU TNFAIP8L3 (11732012_x_at) / Fold change /veh TNFAIP8L3 (11732012_x_at) / RFU MBOAT4 (11741988_at) / Fold change /veh MBOAT4 (11741988_at) / RFU 11764193_at / Fold change /veh 11764193_at / RFU TMEM53 (11763286_at) / Fold change /veh TMEM53 (11763286_at) / RFU MAGEB2 (11727129_at) / Fold change /veh MAGEB2 (11727129_at) / RFU TMEM200A (11744735_a_at) / Fold change /veh TMEM200A (11744735_a_at) / RFU CCDC152 (11751479_a_at) / Fold change /veh CCDC152 (11751479_a_at) / RFU FAM211A (11726209_a_at) / Fold change /veh FAM211A (11726209_a_at) / RFU RGS16 (11746705_a_at) / Fold change /veh RGS16 (11746705_a_at) / RFU VCAN (11755009_s_at) / Fold change /veh VCAN (11755009_s_at) / RFU RHOB (11743442_s_at) / Fold change /veh RHOB (11743442_s_at) / RFU RGS16 (11720943_a_at) / Fold change /veh RGS16 (11720943_a_at) / RFU RGS16 (11720944_at) / Fold change /veh RGS16 (11720944_at) / RFU, VPS4B / Fold change vs veh, VPS4B / RFU, CREB1 / Fold change vs veh, CREB1 / RFU, DNAJC13 / Fold change vs veh, DNAJC13 / RFU, GNAQ / Fold change vs veh, GNAQ / RFU, CDK5R1 / Fold change vs veh, CDK5R1 / RFU, ZRANB3 / Fold change vs veh, ZRANB3 / RFU, CUL4A / Fold change vs veh, CUL4A / RFU, CCNY / Fold change vs veh, CCNY / RFU, UFL1 / Fold change vs veh, UFL1 / RFU, COG3 / Fold change vs veh, COG3 / RFU, DIAPH2 / Fold change vs veh, DIAPH2 / RFU, SKA2 / Fold change vs veh, SKA2 / RFU, AFF3 / Fold change vs veh, AFF3 / RFU, LMF1 / Fold change vs veh, LMF1 / RFU, IPO11 / Fold change vs veh, IPO11 / RFU, DFFB / Fold change vs veh, DFFB / RFU, FOXP1 / Fold change vs veh, FOXP1 / RFU, CARD8 / Fold change vs veh, CARD8 / RFU, STRN3 / Fold change vs veh, STRN3 / RFU, ADK / Fold change vs veh, ADK / RFU, RASSF2 / Fold change vs veh, RASSF2 / RFU, WIPF1 / Fold change vs veh, WIPF1 / RFU, LARP1B / Fold change vs veh, LARP1B / RFU, RASA1 / Fold change vs veh, RASA1 / RFU, RB1 / Fold change vs veh, RB1 / RFU, PPFIA1 / Fold change vs veh, PPFIA1 / RFU, MAT2A / Fold change vs veh, MAT2A / RFU, CCT5 / Fold change vs veh, CCT5 / RFU, WDR92 / Fold change vs veh, WDR92 / RFU, CUX1 / Fold change vs veh, CUX1 / RFU, TTC7A / Fold change vs veh, TTC7A / RFU, TMEM135 / Fold change vs veh, TMEM135 / RFU, DEPTOR / Fold change vs veh, DEPTOR / RFU, CPM / Fold change vs veh, CPM / RFU, DNAJB6 / Fold change vs veh, DNAJB6 / RFU, CACNA2D3 / Fold change vs veh, CACNA2D3 / RFU, DTX4 / Fold change vs veh, DTX4 / RFU, TFCP2 / Fold change vs veh, TFCP2 / RFU, GMCL1 /// GMCL1P1 / Fold change vs veh, GMCL1 /// GMCL1P1 / RFU, AEBP2 / Fold change vs veh, AEBP2 / RFU, SNHG1 /// SNORD22 /// SNORD25 /// SNORD26 /// SNORD27 /// SNORD28 /// SNORD29 /// SNORD31 / Fold change vs veh, SNHG1 /// SNORD22 /// SNORD25 /// SNORD26 /// SNORD27 /// SNORD28 /// SNORD29 /// SNORD31 / Fold change (Aza/veh), C12orf56 (ProbeSet 11735607_a_at) / Fold change (ACY-1035/veh), C12orf56 (ProbeSet 11735607_a_at) / Fold change (Aza/veh), FGFR1OP (ProbeSet 11751329_s_at) / Fold change (ACY-1035/veh), FGFR1OP (ProbeSet 11751329_s_at) / Fold change (Aza/veh), VPS36 (ProbeSet 11739960_a_at) / Fold change (ACY-1035/veh), VPS36 (ProbeSet 11739960_a_at) / RFU SYPL1 (11715823_x_at) / Fold change /veh SYPL1 (11715823_x_at) / RFU IGFBP7 (11715501_s_at) / Fold change /veh IGFBP7 (11715501_s_at) / RFU REEP3 (11722064_at) / Fold change /veh REEP3 (11722064_at) / RFU IGLL1 (11728026_x_at) / Fold change /veh IGLL1 (11728026_x_at): dose or concentration left out as unconfirmed
Conditions: MV-4-11 cells, 48 hours

Nc1ccc(-c2cccs2)cc1NC(=O)c1ccc2c(c1)cc(C1CC1)n2CCN1CCOCC1 [ACY-1035]
Fold change /veh CAMK2N1 (11719241_x_at): 0.84
